This is an account of results in patent US20060040859A1, “Peptides, DNAs, RNAs, and compounds for inhibiting or inducing adrenomedullin activity, and use of the same” (priority 2002, published 2006).

“Also recorded” adds a separate entry of the source.

In experiment [1] the test system is PCI-43 cells. Briefly: Intra-tumoral injection of AM or AMA peptide, tumor size of PCI-43 xenograft (Example 2). The format is in vivo, mouse. Conditions: 50 μg in 0.1 ml saline into the tumor once a day, 7th to 16th day, observed to 21st day, SCID mice. The procedure: On the dorsal side of a CB17lcr-scid Jl mouse (CLEA JAPAN Inc.), 10^7 PCI-43 cells were subcutaneously transplanted. It was confirmed that PCI-43 cells proliferated to form a tumor, and that the tumor diameter exceeded 5 mm after 7 days. After that confirmation, 50 μg […] each of adrenomedullin and a peptide of the present invention (dissolved in 0.1 ml of physiological saline) was injected into the tumor once a day starting on the 7th day until the 16th day. A peptide consisting of SEQ ID NO: 2 was used as the peptide of the present invention (hereinafter also referred to as an “adrenomedullin antagonist (AMA)”). This peptide was purchased from Wako Pure Chemical Industries, Ltd.
The tumor diameter was megascopically measured every three days. Results are shown in FIG. 2, a graphical representation of tumor sizes when adrenomedullin, adrenomedullin antagonist, and physiological saline (V3), respectively, were administered. The horizontal axis represents the number of days after transplanting PCI-43 cells, and the vertical axis the size of the tumor in volume (mm^3). Arrows at the upper part of the graph indicate timings of administration of adrenomedullin, adrenomedullin antagonist, and physiological saline. Five CB 17lcr-scid Jl mice were used in each group.

Experiment [2] deals with newly generated blood vessels. Briefly: Anti-CD31 staining and diameters of newly generated blood vessels in tumor tissue (Example 4). Conditions: for Average ± standard deviation of blood vessel diameters: 100 newly generated blood vessels; for Number of blood vessels 2 μm to less than 8 μm / Number of blood vessels 8 μm or more / Number of blood vessels less than 2 μm: of 100 arbitrarily selected newly generated blood vessels, by diameter; for newly generated blood vessels by anti-CD31 staining: tumor tissue of Example 3 mice, FIG. 5. The format is in vivo, mouse. The protocol: The effect of a peptide of the present invention on angiogenesis was examined. Experiments were carried out with the tumor tissues of mice used in Example 3. Mouse tumor tissues were extirpated, and CD31 antigen, which is the cell surface marker specific for vascular endothelial cells, was stained with anti-CD31 antibody. Staining was performed as described below. The experiments were carried out using five mice.
Tumor tissues were frozen in liquid nitrogen to prepare frozen sections. After the frozen sections were pre-treated in albumin solution for 30 min, endogenous peroxidase activity was suppressed with hydrogen peroxide, and then, the sections were treated with anti-CD31 antibody for 1 h at room temperature. After washing, the sections were treated with a secondary antibody for 1 h, and coloured using […].
Next, 100 newly generated blood vessels of the vascular endothelial cells used in Example 4 were arbitrarily selected to measure their respective diameters. In Table 1, results of the number of the newly generated blood vessels classified by their diameters into three groups (less than 2 μm, 2 μm to less than 8 μm, and 8 μm or more) are shown together with the average of blood vessel diameters and standard deviations. In Table 1, AM stands for adrenomedullin, and AMA adrenomedullin antagonist.

The next experiment deals with cancer cells. Briefly: In vitro growth of cancer cells with AMA. The format is cell-based.
Experiment [3] concerns PCI-43 cells. Briefly: Intra-tumoral injection of AM or AMA peptide, extirpated PCI-43 tumor size and weight (Example 3). The format is in vivo, mouse. The protocol:
On the dorsal side of CB17lcr-scid Jl mice (CLEA JAPAN Inc.), 10^7 PCI-43 cells were subcutaneously transplanted. It was confirmed that PCI-43 cells proliferated to form a tumor, and that the tumor diameter exceeded 5 mm after 7 days. After that confirmation, 50 μg each […] of adrenomedullin and adrenomedullin antagonist (dissolved in 0.1 ml of physiological saline) was injected into the tumor once every three days from the 7th day, that is, on the 7th, 10th, 13th, and 16th days. Adrenomedullin and adrenomedullin antagonist used herein were the same as those used in Example 1.
Mice were sacrificed on the 21st day, and tumors were extirpated and weighed.

Experiment [4] has as its system proliferating cell nuclear antigen (PCNA) of tumor cells. Briefly: Anti-PCNA staining of tumor cells (Example 5). As to conditions: for cells reacting with the anti-PCNA antibody: FIG. 6; for PCNA-labelling index: tumor cells of treated mice. The format is in vivo, mouse. An excerpt:
The effect of a peptide of the present invention on cell proliferation was examined. The proliferating cell nuclear antigen (PCNA) of tumor cells from the mice used in Example 2 was stained with anti-PCNA antibody. The staining method was the same as in Example 4. Five mice were used in the experiment. The staining results for tumor cells of an adrenomedullin-administered mouse are shown on the left side in FIG. 6, while those of an adrenomedullin antagonist-administered mouse are shown on the right side.

The subject of experiment [5] is HUVEC cells. Briefly: MTS assay, AMA with AM on endothelial cells under hypoxic and nutrient-deprived conditions (Example 7C). The format is cell-based. Conditions: AM 10^-6 M, AMA 0 to 10^-6 M, VEGF and FGF 10 ng/ml, 48 h. The protocol: The effect of both AM and AMA together on the growth and apoptosis of endothelial cells under extreme conditions (hypoxic and nutrient-deprived) and in the presence of growth factors is examined herein. As in Example 1 above, hypoxic conditions comprised culture in 1% O2 concentration for 12 h using a hypoxic culture chamber (Wakenyaku Industry) and nutrient-deprived conditions involved addition of only 13 mg/dl glucose.
Five×10^3 cells (2×10^4 in some experiments) were plated in wells of 96-well plates. Human adrenomedullin (AM) (SEQ ID NO: 1) was added at a concentration of 10^−6 M and a human adrenomedullin antagonist peptide (AMA) (SEQ ID NO: 2) was added at indicated concentrations, ranging from 0 to 10^−6 M. VEGF and FGF were added at 10 ng/ml. The cells were incubated for 48 h and the viable cell numbers were determined by the MTS assay according to the manufacturer's instructions as described above in Example 7A.
For orientation: Tetrazolium dyes change colour on reduction, which living cells bring about.

Experiment [6] deals with HUVEC cells. Briefly: MTS assay, endothelial cells under hypoxic and nutrient-deprived conditions with VEGF and FGF (Example 7B). The format is cell-based. Conditions: hypoxic and glucose-deprived, AM 0 to 10^-6 M, VEGF and FGF 10 ng/ml, 48 h. The procedure:
The effect of AM on the growth and apoptosis of endothelial cells under extreme conditions (hypoxic and nutrient-deprived) and in the presence of growth factors is examined herein. As in Example 1 above, hypoxic conditions comprised culture in 1% O2 concentration for 12 h using a hypoxic culture chamber (Wakenyaku Industry) and nutrient-deprived conditions involved addition of only 13 mg/dl glucose.
Five×10^3 cells (2×10^4 in some experiments) were plated in wells of 96-well plates. Human adrenomedullin (AM) (SEQ ID NO: 1) was added at indicated concentrations, ranging from 0 to 10^−6 M. VEGF and FGF were added at 10 ng/ml. The cells were incubated for 48 h and the viable cell numbers were determined by the MTS assay according to the manufacturer's instructions as described above in Example 7A.

The test system of experiment [7] is Mitogen-activated protein kinases (MAPKS). Briefly: MAPK activity in Rat-2 cells. The format is cell-based. An excerpt: (§1) In order to skip this problem, cell lines expressing endogenous adrenomedullin binding. Three cell lines to date are available. L6 cells are a rat myoblast cell line known to express CGRP1 receptors, Swiss 3T3 cells are a mouse fibroblast cell line, and Rat-2 cells are rat fibroblasts. […] L6 cells express CRLR and RAMPs 1 and 2. In Swiss 3T3 cells the effects of adrenomedullin were mediated via specific adrenomedullin receptors. […] These cells are useful in establishing the screening system to inhibit functionally the intracellular signal transduction after a receptor engagement by adrenomedullin.

The next experiment concerns Rat-2 cells. Briefly: Intracellular cAMP in Rat-2 cells. The format is cell-based. Conditions: in the absence of CGRP binding.
Source text: as §1

The test system of experiment [8] is HUVEC cells. Briefly: MTS assay, endothelial cell growth under normoxic, normal glucose conditions (Example 7A). The format is cell-based. Conditions: AM 0 to 10^-6 M, 48 h, normoxic and nutrient-supplied. The procedure: The effect of AM on the growth of endothelial cells under normal conditions (normoxia, normal glucose) is examined herein. As in Example I above, normoxic conditions comprised culture in 20% O2 concentration and normal glucose conditions involved addition of 100 mg/dl of glucose or higher.
Five×10^3 cells (2×10^4 in some experiments) were plated in wells of 96-well plates. Human adrenomedullin (AM) (SEQ ID NO: 1) was added at indicated concentrations, ranging from 0 to 10^−6 M. The cells were incubated for 48 h and the viable cell numbers were determined by MTS assay according to the manufacturer's instructions. Cell viability can be reflected by the integrity of the mitochondria. When the MTS reagent (a tetrazolium salt) is applied to living cells, it is converted to a color compound (formazan) […] at 490 nm. Accordingly, the MTS assay may be used to assay cell viability and to count viable cells.

In the next experiment the test system is U87 glioblastoma cells. Conditions: exogenously added; cited from earlier work.

With “AMA: 31 amino acid truncated human adrenomedullin lacking the first 21 N-terminal amino acids (SEQ ID NO: 2), purchased from Wako”, the “tumor size (volume)” value in the experiment with PCI-43 cells [1] (listed as adrenomedullin antagonist) is given as “became almost megascopically invisible; also recorded: reduction in tumor volume”. Besides, in [2], the “Average ± standard deviation of blood vessel diameters” value was determined as 2.276 ± 1.120 μm, the “Number of blood vessels 2 μm to less than 8 μm” value came to 44, the “Number of blood vessels 8 μm or more” value is 1 and the “Number of blood vessels less than 2 μm” value is listed as 55. Besides, the “newly generated blood vessels by anti-CD31 staining” value in experiment [2] is listed as “newly generated blood vessels were thin”. In addition, in experiment [2] (mouse, in vivo), the “blood vessel diameters relative to adrenomedullin-administered mice” value is given as “one half”. In addition, in the experiment on cancer cells, the “growth inhibitory effect on cancer cells in vitro” value is on record as “did not exhibit any growth inhibitory effect”. Also, the “tumor weight relative to adrenomedullin-administered group” value in the experiment with PCI-43 cells [3] (21st day) was “about half”. In the experiment on PCI-43 cells [3] (21st day, photograph FIG. 3, listed as adrenomedullin antagonist), the “size of the extirpated tumor compared to adrenomedullin-administered group” value is reported as “became smaller; also recorded: noticeably smaller”. Further, in experiment [4], the “cells reacting with the anti-PCNA antibody” value is “few cells reacted with the anti-PCNA antibody” and the PCNA-labelling index is listed as 6.3±5.2. Moreover, the “proliferating cells compared to adrenomedullin-administered mice” value in [4] (mouse, in vivo) is “decreased by about one quarter”. For the same substance, in the experiment with HUVEC cells [5], the “apoptosis of endothelial cells (viable cells, O.D.)” value (“apoptosis of endothelial cells” for short) is “induced apoptosis of the endothelial cells in a dose dependent manner”.
In the case of VEGF, the “apoptosis of endothelial cells” value in the experiment on HUVEC cells [6] is listed as “underwent apoptosis”.
“adrenomedullin (YRQSMNNFQGLRSFGCRFGTCTVQKLAHQIYQFTDKDKDNVAPRSKISPQGY; listed as Homo sapiens) [AM, reference compound]”: the “PDGF-stimulated and basal MAPK activity” value in experiment [7] was “potently and dose-dependently inhibited”. For the same substance, the “apoptosis of endothelial cells” value in the experiment on HUVEC cells [6] is “protected the endothelial cells from apoptosis”. In the experiment on PCI-43 cells [1], the “tumor size (volume)” value is on record as “the tumor size hardly changed”. In experiment [2], the “Average ± standard deviation of blood vessel diameters” value came out at 6.454 ± 5.313 μm, the “Number of blood vessels 2 μm to less than 8 μm” value stood at 54, the “Number of blood vessels 8 μm or more” value amounted to 31 and the “Number of blood vessels less than 2 μm” value is listed as 15. Further, the “newly generated blood vessels by anti-CD31 staining” value in experiment [2] is “thick blood vessels were newly generated”. Besides, in the experiment on Rat-2 cells, the “intracellular cAMP” value is recorded as “dose-dependent stimulation of intracellular cAMP”. Further, the tumor weight result in the experiment with PCI-43 cells [3] (50 μg into the tumor on 7th, 10th, 13th, 16th days, tumors extirpated on 21st day) is “about 0.05 g”. Besides, in experiment [4], the “cells reacting with the anti-PCNA antibody” value is “many cells reacting with the anti-PCNA antibody were present” and the PCNA-labelling index was found to be 25.8±3.9. The “growth of endothelial cells (viable cells, O.D.)” value in the experiment on HUVEC cells [8] is recorded as “no significant effect”. Besides, in the experiment with U87 glioblastoma cells, the “growth of glioblastoma cells in vitro” value is given as “can stimulate the growth”.
